From ChEMBL document CHEMBL1275353, “4-Phenylcoumarins from Mesua elegans with acetylcholinesterase inhibitory activity” (Bioorg Med Chem, 2010) come the findings set out here.

Each structure is given as a SMILES string.

As usually defined, the IC50 is the concentration needed to halve the response being measured. A lower IC50 goes with inhibition by little substance.

In the assay the target is Acetylcholinesterase (Electrophorus electricus, UniProt O42275).
Chain of Acetylcholinesterase (O42275 whole entry): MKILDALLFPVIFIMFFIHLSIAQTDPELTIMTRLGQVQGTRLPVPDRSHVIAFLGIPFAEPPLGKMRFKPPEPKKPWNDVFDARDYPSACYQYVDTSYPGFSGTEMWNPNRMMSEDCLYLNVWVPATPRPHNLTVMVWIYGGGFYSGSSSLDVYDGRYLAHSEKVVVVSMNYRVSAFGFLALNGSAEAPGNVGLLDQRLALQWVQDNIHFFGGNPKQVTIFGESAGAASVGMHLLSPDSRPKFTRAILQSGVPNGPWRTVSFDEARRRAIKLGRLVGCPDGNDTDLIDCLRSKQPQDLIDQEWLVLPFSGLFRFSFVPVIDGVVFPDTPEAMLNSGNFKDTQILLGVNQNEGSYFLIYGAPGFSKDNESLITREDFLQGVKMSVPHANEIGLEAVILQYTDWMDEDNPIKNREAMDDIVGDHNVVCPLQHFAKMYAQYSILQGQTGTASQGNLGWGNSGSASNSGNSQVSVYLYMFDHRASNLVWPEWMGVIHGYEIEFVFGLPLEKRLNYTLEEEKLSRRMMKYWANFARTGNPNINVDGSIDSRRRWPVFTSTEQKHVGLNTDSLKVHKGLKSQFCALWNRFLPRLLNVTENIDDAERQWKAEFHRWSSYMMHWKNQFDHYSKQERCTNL
Description: Inhibition of Electrophorus electricus AChE after 120 secs by Ellman spectroscopic method
`CC(C)=CCCC1(C)C=Cc2c(O)c(C(=O)CC(C)C)c3oc(=O)cc(-c4ccccc4)c3c2O1` (centres undefined) [MESUAGENIN A] came in with an IC50 of 1.06 µM.
The figure for `CCC(C)C(=O)c1c(O)c2c(c3c(-c4ccccc4)cc(=O)oc13)OC(C)(CCC=C(C)C)C=C2` (centres undefined) [MESUAGENIN B] is 0.7 µM; for `CC(C)=CCC/C(C)=C/Cc1c(O)c(C(=O)CC(C)C)c2oc(=O)cc(-c3ccccc3)c2c1O` it is over 20 µM.
With `CCC(C)C(=O)c1c(O)c(C/C=C(\C)CCC=C(C)C)c(O)c2c(-c3ccccc3)cc(=O)oc12` (centres undefined), the IC50 was 3.06 µM.
For `CC(C)=CCc1c(O)c(C(=O)CC(C)C)c2oc(=O)cc(-c3ccccc3)c2c1O` [ISOMAMMEISIN] the value was over 20 µM; for `CC(C)CC(=O)c1c(O)c2c(c3c(-c4ccccc4)cc(=O)oc13)OC(C(C)(C)O)C2` (centres undefined), over 20 µM.
As for `CC(C)=CCC/C(C)=C/Cc1c(O)c(C(=O)C(C)C)c2oc(=O)cc(-c3ccccc3)c2c1O` [MESUAGENIN C], the half-maximal inhibitory concentration (IC50) was over 20 µM.
`CC(C)CCC(C)(O)C1(C)Cc2c(O)c(C(=O)CC(C)C)c3oc(=O)cc(-c4ccccc4)c3c2O1` (centres undefined) [MESUAGENIN D] came in with an IC50 of 8.73 µM.
The figure for `CC(C)CC(=O)c1c(O)c2c(c3c(-c4ccccc4)cc(=O)oc13)OC(C)(C)C=C2` [ISOMAMMEIGIN] is over 20 µM.
